# Data as given in a melting point compilation (Tetko et al.; mined from patent text by program, amines drawn as free bases though some values may be those of a salt).
row,melting point [°C],SMILES
1,129 to 130,CCCCC[C@H]1CC[C@H](CSc2cc(O)c3c(c2N)C(=O)c2ccccc2C3=O)CC1
2,171 to 173,COCCN(C)CC(=O)N(C)Cc1ccc(C(=O)Nc2nc3c(OC)ccc(N4CCOCC4)c3s2)cc1
3,97 to 98,O=C(c1nc2ccccc2s1)C1CCN(CCc2ccc(F)cc2)CC1
4,191 to 193,CCOC1(OCC)CCc2c(ccc3c(=O)c4cc(C(=O)O)ccc4oc23)O1
5,223 to 227,O=C(O)CNC1CCc2ccccc2C1 (configuration not stated)
6,168 to 170,O=C(NCCO)/C(=C/c1ccc(OC(F)(F)F)cc1)NC(=O)c1ccc(OCC2CCC2)cc1
7,> 200,Cc1ccc(-c2[nH]c(-c3cccnc3)nc2C(=O)Nc2nccs2)cc1
8,175 to 177,CCN(CC)C(=CC(=O)OC)N1C(=O)C(=[N+]=[N-])c2ccccc21
9,191 to 192,O=[N+]([O-])c1ccc(S(=O)(=O)Nc2cccnc2Nc2ccccc2)cc1
10,81 to 85,CCOC(=O)C1=C(C)NC(C)=C(C(=O)OCCN2CCC(C(c3ccccc3)c3ccccc3)CC2)C1c1cccc(Cl)c1Cl (configuration not stated)
11,149 to 150,OC(COc1ccc(-n2cncn2)cc1)CN1CCN(c2ccc(F)cc2)CC1 (configuration not stated)
12,198 to 200,N#Cc1cnc2ccsc2c1Nc1ccc(Cl)cc1Cl
13,181 to 183,Cc1ccc(NC2=C(C(=O)Nc3ccccc3)C(=O)OC2)cc1
14,95 to 98,CCOC(=O)COc1coc(C)cc1=O
15,137 to 139,CSC(NCCSCc1[nH]cnc1C)=C(C#N)C(N)=O
16,181,CCOC(=O)CCCOc1ccc2nc3c(cc2c1)CC(=O)N3
17,> 250,CC(=O)Nc1ccc2c(O)c(C(=O)NCc3ccc(Cl)cc3)cnc2c1
18,> 300,O=c1ccc(-c2cc(Cl)c(O)c(Cl)c2)n[nH]1
19,> 250,CCCc1[nH]c2cc(C(=O)O)ccc2c1C(=O)COC
20,144 to 146,CCCN(CC)S(=O)(=O)NC(=S)N1CC(c2ccccc2)C(c2ccc(Cl)cc2)=N1 (configuration not stated)
21,102 to 104,CCOC(=O)c1c2ccc(Cl)cc2c(-c2ccccc2)n1CCCN(CC)C(C)=O
22,> 250,O=c1ccc(-c2ccc(-c3ccc(=O)[nH]n3)cc2)n[nH]1
23,192 to 194,Nn1c(=O)c2cc(F)c(Cl)nc2n(C2CC2)c1=O

row,melting point [°C],SMILES
1,113 to 115,O=c1c(Cl)c(-c2ccc(F)cc2)c1=O
2,203 to 205,CC(=O)N[C@@H]1c2cc(C#N)ccc2CC(C)(C)[C@H]1O (relative stereo)
3,190 to 191,CC(C)S(=O)(=O)c1cc(OCCc2ccccn2)c2[nH]nc(Nc3nccs3)c2c1
4,109 to 112,CN(C)C=NC(=Nc1ccccc1)N1CCOCC1
5,146 to 148,O=C1SC(Cc2ccc(OCCON=Cc3ccc(-c4ccccc4)nc3)cc2)C(=O)N1C(c1ccccc1)(c1ccccc1)c1ccccc1 (configuration not stated)
6,185 to 186,NS(=O)(=O)c1ccc(-n2nc(C(F)F)cc2-c2ccc(Cl)cc2)cc1
7,67,COc1ccc(C2CCCCC2)cc1-c1csc(N)n1
8,110,c1ccc(CCN2Cc3sccc3C(c3ccccc3)C2)cc1 (configuration not stated)
9,130 to 136,C#CCNC(=S)NC1CCC(=O)c2sccc21 (configuration not stated)
10,246 to 249,C[C@H]1[C@H](N(C)C(=O)C(F)(F)F)CN1c1c(F)cc2c(=O)c(C(=O)O)cn(C3CC3)c2c1F (relative stereo)
11,97 to 98,CSC1C2=C(CCCC2)C(=O)N1c1ccc(Cl)cc1F (configuration not stated)
12,151,COP(=O)(OC)C(O)[C@H](CC1CCCCC1)NC(=O)[C@H](CC(C)C)NC(=O)OCc1ccccc1 (some centres not stated)
13,154 to 155,COC(=O)c1cc2ccnc(NCc3ccccc3)c2[nH]1
14,96 to 99,COc1ccccc1CN1N=C(c2ccc(OC)c(OC)c2)[C@@H]2CCCC[C@@H]2C1=O (relative stereo)
15,102 to 103,CCOC(=O)c1cc2n(c1)C(C)Nc1ccccc1-2 (configuration not stated)
16,121 to 124,CS(=O)(=O)c1ccc(C(CC2CCCC2)C(=O)Nc2nccs2)cc1[N+](=O)[O-] (configuration not stated)
17,122 to 123,COc1ccc(C2(C#Cc3cccc(-c4nc(C)no4)c3)CCCC(=O)C2)cc1OC1CCCC1 (configuration not stated)
18,201,Cc1cc(C#N)c(C)c(C(=O)Nc2ccc(F)c(C)n2)n1
19,250,Cc1c(C#N)sc2nc(-c3ccc([N+](=O)[O-])cc3)nc(N3CCNCC3)c12
20,112 to 114,COC(=O)C(Oc1cc(OCc2ccsc2)ccc1C#N)c1ccccc1 (racemic)
21,189 to 192,O=C(Cn1nnc2ccccc21)Nc1ccc(-n2nc(C(F)(F)F)cc2C2CC2)nc1
22,88 to 89,CC(C)(C)OC(=O)N1CCN(c2ncccc2C=O)CC1
23,148,CNC(=O)c1cccc(NC(=O)COc2ccccc2C)c1

row,melting point [°C],SMILES
1,238 to 240,O=C(Nc1cccnc1)c1c(OCC2CC2)ccc2oc3ccccc3c12
2,208 to 209,CCn1c(=O)[nH]c2c(C)nn(CC)c2c1=O
3,80 to 81,N#CCCCc1ncccc1NS(=O)(=O)c1ccccc1
4,190 to 192,CCCCc1nc(=O)c2cc(C(C)(C)O)ccc2[nH]1
5,97 to 99,CCCCCC(=O)Nc1ccc2ccn(CCCCCCC(=O)NS(=O)(=O)c3ccccc3)c2c1
6,> 250,O=C(O)Cc1ccn2c(=O)c(C(=O)O)ccc2c1
7,237 to 240,NC(=O)N1C(=O)C(C(=O)c2cccs2)c2nc(Cl)c(Cl)cc21 (configuration not stated)
8,93 to 96,CCCc1ccnc(C(=O)OCC)c1N
9,183,CON(C)C(=O)c1cc(-n2c(Cl)nc(C(F)(F)F)cc2=O)c(F)cc1Cl
10,164 to 165,COc1cc(Sc2nc(C)c(CC(=O)O)s2)nc(OC)n1
11,252 to 253,CNC(=O)c1cc(NCc2c(C)cccc2C)c2nc(C)n(C)c2c1
12,168 to 174,Cc1ccc2nc(NCCCO)ccc2c1NC(=O)CC12CC3CC(CC(C3)C1)C2
13,> 250,CCOC(=O)c1nc2c(=O)[nH]c3cc(C(F)(F)F)ccc3n2c1Cn1ccnc1C
14,290 to 294,COc1ccccc1C1=Nc2ccc(C(=O)O)cc2C(=O)C1
15,210,CC1CCN(C2C3=CC(OC3=O)C3C(CC4(C)OC4C2O)OC(=O)C3C)CC1 (configuration not stated)
16,> 82,CCOC(=O)[C@H](CC(C)C)SC[C@H](O)[C@H](CC1CCCCC1)NC(=O)[C@H](Cc1c[nH]cn1)NC(=O)[C@H](Cc1ccccc1)NC(=O)OC(C)(C)C
17,159 to 163,COc1cc(OC)c(CC(=O)c2ccc(C(C)C)c(OS(N)(=O)=O)c2C(C)C)c(OC)c1
18,124 to 125,CSc1ncc(N(C)C(=O)C(C)(C)c2cc(C(F)(F)F)cc(C(F)(F)F)c2)c(-c2ccccc2C)n1
19,122 to 125,CC(=CC=Cc1ccccc1)C(=O)C1OCC(C)(C)CO1
20,131 to 133,Nc1cc(C(F)(F)F)nc(C(=O)O)c1Cl
21,104 to 105,Cc1ccc(C2COc3c(C)c(C)c(NCc4ccccc4)c(C)c32)nc1 (configuration not stated)
22,207 to 208,Cc1c(C(=O)O)ccc2c1CCCO2
23,80 to 82,COC(=O)Cc1ccc2c(c1)CC(NS(=O)(=O)c1ccc(Cl)cc1)C2 (configuration not stated)

row,melting point [°C],SMILES
1,138 to 140,O=C(NNc1ccc(C=CC(c2cc(Cl)c(Cl)c(Cl)c2)C(F)(F)F)cc1)C1CC1 (configuration not stated)
2,232,N=C(N)c1ccc(-c2ccc(-c3ccc(C(=N)N)cn3)o2)cc1
3,160 to 162,COc1ccccc1N1CCN(C(=S)Nc2nc3ccccc3nc2OC)CC1
4,114 to 116,CC1(C)Oc2ccc([N+](=O)[O-])cc2[C@@H](O)[C@@H]1Br (relative stereo)
5,120,COC(=O)C(C)(C)OCc1cc2nc(Cl)ccc2n1S(=O)(=O)c1ccc(C(C)C)cc1
6,247 to 248,CCn1cc(C(=O)O)c(=O)c2cnc(N3CCN(c4ccccc4)CC3)nc21
7,124 to 125,CC(C)(C)NCC(O)COc1ccc(-c2csnn2)cc1 (configuration not stated)
8,100,O=C(O)CC[C@@H](C(=O)OCc1ccccc1)n1c2ccccc2c2ccccc21
9,147 to 149,COc1cc(-c2csc(C#N)n2)cc(Cl)c1OC
10,147 to 148,COC(=O)c1sc(C)c2[nH]c(C(F)(F)C(F)(F)C(F)(F)F)nc12
11,195 to 196,CCOc1cc2c(C)c(CCN3CCC(c4ccccc4)CC3)c(=O)oc2cc1OC
12,147,CC(C)(C)OC(=O)[C@@H]1CS[C@H](c2cccnc2)N1C(=O)CNC(=O)Nc1cccc(C(=O)O)c1
13,174 to 176,COc1ccccc1C1(Cc2ccccc2)C(=O)N(C)c2ccccc21 (configuration not stated)
14,119 to 120,O=[N+]([O-])c1ccc(N2CCC(Nc3ncnc4c3ncn4[C@@H]3C[C@H](CO)[C@@H](O)[C@H]3O)C2)cc1 (some centres not stated)
15,153 to 154,CCc1cn(S(C)(=O)=O)c2c1C(=O)CC(c1ccccc1)C2 (configuration not stated)
16,205 to 207,CN1C(=O)C(NC(=O)CC2CCCCC2)N=C(N2CCCCCC2)c2ccccc21 (configuration not stated)
17,109 to 110,CCCc1nn(-c2ccc(C(F)(F)F)cn2)cc1CCCOc1cccc(CC(=O)O)c1F
18,106 to 108,O=C1C(CCO)Oc2cc([N+](=O)[O-])ccc2N1Cc1ccccc1Cl (configuration not stated)
19,261 to 263,Nc1cccc(-n2c(=O)c3c(CCc4ccncc4)n[nH]c3c3cccnc32)c1
20,52 to 54,COC(=O)c1sc(C)c(C)c1O
21,184 to 186,CCc1cc(-c2cc(N)n3nc(-c4ccco4)nc3c2)ccn1
22,208 to 212,COc1c(N2CCC(N)C2)c(F)cc2c(=O)c(C(=O)O)cn(C3CC3)c12 (configuration not stated)

row,SMILES,melting point [°C]
1,COC(=O)C(C)=CC1C(C(=O)OC(C)(C)N2C(=O)C=CC2=O)C1(C)C (configuration not stated),98.7
2,CC(=O)Nc1ccc(Cl)cc1C(=O)c1ccccc1Cl,108 to 110
3,CN1C(=O)[C@H](NC(=O)Cc2ccc(C(F)(F)F)cc2)N=C(c2ccccc2)c2ccccc21,224 to 226
4,CNC(=O)Oc1cc(C)c(NC(=O)C(F)(F)Cl)c(C)c1,163 to 165
5,c1ccc2c(c1)CC1CN(Cc3c[nH]c4ncccc34)CCN21 (configuration not stated),197 to 198
6,COc1ccc2cc(C(=O)NC3N=C(c4ccccc4)c4ccccc4-n4c(C)nnc43)[nH]c2c1 (configuration not stated),160 to 170
